Laboratory results from patent US20050022267A1, “Methods for Agrobacterium-mediated transformation of dandelion” (priority 2003, published 2005).

Columns and labels:
dandelion leaf explants [1] = assay: Effect of phyto-hormones on dandelion regeneration: adventitious shoot formation of leaf explants on seedling media; type: cell-based; conditions: for number of regenerated shoots per explant / percentage of leaf explants displaying adventitious shoot formation: four weeks
Experimental: Dandelion seeds are surface-sterilized in approximately 70% (volume/volume, v/v) ethanol for 30 sec in the bottle. The ethanol is removed and the seeds are soaked in approximately 1% (v/v) bleach with gentle agitation for about 15 minutes. The bleach is poured off and the […] are rinsed thoroughly about 3-4 times with sterilized distilled water. Seeds are germinated and in vitro cultured in the sterile bottles containing seedling medium (Table 1). Over one month-old seedlings are used as stock plants for leaf and root explants. The leaves and roots of stock plants are placed in a petri plate with droplets of sterile water. Explants of leaves (ca. 0.5 cm in diameter) and of roots (ca. 0.5 cm in length) were excised from dandelion plants. Approximately 15 to 20 explants per plate are positioned with the adaxial surface down onto pre-incubation medium (Table 2). The plates are incubated under mixed white and red lights for about 6 days at about 22° C. […] Parentheses indicate the number of regenerated shoots per explant.

dandelion leaf explants [2] = assay: Effect of maltose on shoot regeneration in shoot induction media; type: cell-based; conditions: 1% maltose (w/v) in shoot induction media
Experimental: Leaf explants derived from dandelion plants were cultured in shoot induction media containing no maltose (w/v) or 1% maltose (w/v) to compare the efficacy of maltose on shoot production.

[3] = isolated from dandelion roots; cited from earlier work
[4] = 6-benzyladenine 0.25 mg/L, α-naphthalene acetic acid 0 mg/L
[5] = 6-benzyladenine 0.25 mg/L, α-naphthalene acetic acid 0.1 mg/L
[6] = 6-benzyladenine 0.25 mg/L, α-naphthalene acetic acid 0.5 mg/L
[7] = 6-benzyladenine 0.25 mg/L, α-naphthalene acetic acid 1.0 mg/L
[8] = 6-benzyladenine 0.25 mg/L, α-naphthalene acetic acid 2.0 mg/L
[9] = 6-benzyladenine 0.5 mg/L, α-naphthalene acetic acid 0 mg/L
[10] = 6-benzyladenine 0.5 mg/L, α-naphthalene acetic acid 0.1 mg/L
[11] = 6-benzyladenine 0.5 mg/L, α-naphthalene acetic acid 0.5 mg/L
[12] = 6-benzyladenine 0.5 mg/L, α-naphthalene acetic acid 1.0 mg/L
[13] = 6-benzyladenine 0.5 mg/L, α-naphthalene acetic acid 2.0 mg/L
[14] = 6-benzyladenine 1.0 mg/L, α-naphthalene acetic acid 0 mg/L
[15] = 6-benzyladenine 1.0 mg/L, α-naphthalene acetic acid 0.1 mg/L
[16] = 6-benzyladenine 1.0 mg/L, α-naphthalene acetic acid 0.5 mg/L
[17] = 6-benzyladenine 1.0 mg/L, α-naphthalene acetic acid 1.0 mg/L
[18] = 6-benzyladenine 1.0 mg/L, α-naphthalene acetic acid 2.0 mg/L
[19] = 6-benzyladenine 2.0 mg/L, α-naphthalene acetic acid 0 mg/L
[20] = 6-benzyladenine 2.0 mg/L, α-naphthalene acetic acid 0.1 mg/L
[21] = 6-benzyladenine 2.0 mg/L, α-naphthalene acetic acid 0.5 mg/L
[22] = 6-benzyladenine 2.0 mg/L, α-naphthalene acetic acid 1.0 mg/L
[23] = 6-benzyladenine 2.0 mg/L, α-naphthalene acetic acid 2.0 mg/L
[24] = kinetin 0.5 mg/L, α-naphthalene acetic acid 0 mg/L
[25] = kinetin 0.5 mg/L, α-naphthalene acetic acid 0.1 mg/L
[26] = kinetin 0.5 mg/L, α-naphthalene acetic acid 0.5 mg/L
[27] = kinetin 0.5 mg/L, α-naphthalene acetic acid 1.0 mg/L
[28] = kinetin 0.5 mg/L, α-naphthalene acetic acid 2.0 mg/L
[29] = kinetin 1.0 mg/L, α-naphthalene acetic acid 0 mg/L
[30] = kinetin 1.0 mg/L, α-naphthalene acetic acid 0.1 mg/L
[31] = kinetin 1.0 mg/L, α-naphthalene acetic acid 0.5 mg/L
[32] = kinetin 1.0 mg/L, α-naphthalene acetic acid 1.0 mg/L
[33] = kinetin 1.0 mg/L, α-naphthalene acetic acid 2.0 mg/L
[34] = kinetin 2.0 mg/L, α-naphthalene acetic acid 0 mg/L
[35] = kinetin 2.0 mg/L, α-naphthalene acetic acid 0.1 mg/L
[36] = kinetin 2.0 mg/L, α-naphthalene acetic acid 0.5 mg/L
[37] = kinetin 2.0 mg/L, α-naphthalene acetic acid 1.0 mg/L
[38] = kinetin 2.0 mg/L, α-naphthalene acetic acid 2.0 mg/L
[39] = kinetin 3.0 mg/L, α-naphthalene acetic acid 0 mg/L
[40] = kinetin 3.0 mg/L, α-naphthalene acetic acid 0.1 mg/L
[41] = kinetin 3.0 mg/L, α-naphthalene acetic acid 0.5 mg/L
[42] = kinetin 3.0 mg/L, α-naphthalene acetic acid 1.0 mg/L
[43] = kinetin 3.0 mg/L, α-naphthalene acetic acid 2.0 mg/L
[44] = α-naphthalene acetic acid 0.1 mg/L, 6-benzyladenine 0 mg/L
[45] = α-naphthalene acetic acid 0.1 mg/L, kinetin 0 mg/L
[46] = α-naphthalene acetic acid 0.5 mg/L, 6-benzyladenine 0 mg/L
[47] = α-naphthalene acetic acid 0.5 mg/L, kinetin 0 mg/L
[48] = α-naphthalene acetic acid 1.0 mg/L, 6-benzyladenine 0 mg/L
[49] = α-naphthalene acetic acid 1.0 mg/L, kinetin 0 mg/L
[50] = α-naphthalene acetic acid 2.0 mg/L, 6-benzyladenine 0 mg/L
[51] = α-naphthalene acetic acid 2.0 mg/L, kinetin 0 mg/L

## 6-benzyladenine
Dandelion leaf explants [1]; 1 or 2 mg/l 6-benzyladenine and 0.1 mg/l α-naphthalene acetic acid
  suitability for shoot regeneration of dandelion: most suitable for shoot regeneration
Dandelion leaf explants [1]; [4]
  number of regenerated shoots per explant: (21.2) shoots per explant
  percentage of leaf explants displaying adventitious shoot formation: 60.0%
Dandelion leaf explants [1]; [5]
  number of regenerated shoots per explant: (16.3) shoots per explant
  percentage of leaf explants displaying adventitious shoot formation: 63.0%
Dandelion leaf explants [1]; [6]
  number of regenerated shoots per explant: (12.0) shoots per explant
  percentage of leaf explants displaying adventitious shoot formation: 78.0%
Dandelion leaf explants [1]; [7]
  number of regenerated shoots per explant: (24.5) shoots per explant
  percentage of leaf explants displaying adventitious shoot formation: 97.0%
Dandelion leaf explants [1]; [8]
  number of regenerated shoots per explant: (3.6) shoots per explant
  percentage of leaf explants displaying adventitious shoot formation: 90.0%
Dandelion leaf explants [1]; [9]
  number of regenerated shoots per explant: (17.4) shoots per explant
  percentage of leaf explants displaying adventitious shoot formation: 75.0%
Dandelion leaf explants [1]; [10]
  number of regenerated shoots per explant: (23.8) shoots per explant
  percentage of leaf explants displaying adventitious shoot formation: 99.9%
Dandelion leaf explants [1]; [11]
  number of regenerated shoots per explant: (23.7) shoots per explant
  percentage of leaf explants displaying adventitious shoot formation: 99.9%
Dandelion leaf explants [1]; [12]
  number of regenerated shoots per explant: (21.7) shoots per explant
  percentage of leaf explants displaying adventitious shoot formation: 88.0%
Dandelion leaf explants [1]; [13]
  number of regenerated shoots per explant: (3.2) shoots per explant
  percentage of leaf explants displaying adventitious shoot formation: 40.0%
Dandelion leaf explants [1]; [14]
  number of regenerated shoots per explant: (17.4) shoots per explant
  percentage of leaf explants displaying adventitious shoot formation: 85.0%
Dandelion leaf explants [1]; [15]
  number of regenerated shoots per explant: (25.1) shoots per explant
  percentage of leaf explants displaying adventitious shoot formation: 99.9%
Dandelion leaf explants [1]; [16]
  number of regenerated shoots per explant: (20.4) shoots per explant
  percentage of leaf explants displaying adventitious shoot formation: 99.9%
Dandelion leaf explants [1]; [17]
  number of regenerated shoots per explant: (13.1) shoots per explant
  percentage of leaf explants displaying adventitious shoot formation: 83.0%
Dandelion leaf explants [1]; [18]
  number of regenerated shoots per explant: (5.9) shoots per explant
  percentage of leaf explants displaying adventitious shoot formation: 99.9%
Dandelion leaf explants [1]; [19]
  number of regenerated shoots per explant: (16.0) shoots per explant
  percentage of leaf explants displaying adventitious shoot formation: 99.9%
Dandelion leaf explants [1]; [20]
  number of regenerated shoots per explant: (17.4) shoots per explant
  percentage of leaf explants displaying adventitious shoot formation: 99.9%
Dandelion leaf explants [1]; [21]
  number of regenerated shoots per explant: (20.7) shoots per explant
  percentage of leaf explants displaying adventitious shoot formation: 99.9%
Dandelion leaf explants [1]; [22]
  number of regenerated shoots per explant: (8.5) shoots per explant
  percentage of leaf explants displaying adventitious shoot formation: 99.9%
Dandelion leaf explants [1]; [23]
  number of regenerated shoots per explant: (5.4) shoots per explant
  percentage of leaf explants displaying adventitious shoot formation: 99.9%

## OC[C@H]1O[C@H](O[C@H]2[C@H](O)[C@@H](O)C(O)O[C@@H]2CO)[C@H](O)[C@@H](O)[C@@H]1O (mixture of isomers) [Maltose, maltose]
Dandelion leaf explants [2]
  shoot production in comparison to no maltose: improves shoot production
Dandelion leaf explants [2]; leaf explants
  # of Shoots per Explants: 25

## c1coc(CNc2ncnc3[nH]cnc23)c1 [Kinetin, kinetin]
Dandelion leaf explants [1]; 0.05 mg/l α-naphthalene acetic acid and 1.0 mg/l kinetin or 0.1 mg/l α-naphthalene acetic acid and 2.0 mg/l kinetin
  suitability for dandelion shoot regeneration: also suitable for dandelion shoot regeneration
Dandelion leaf explants [1]; [24]
  number of regenerated shoots per explant: (24.8) shoots per explant
  percentage of leaf explants displaying adventitious shoot formation: 99.9%
Dandelion leaf explants [1]; [25]
  number of regenerated shoots per explant: (19.8) shoots per explant
  percentage of leaf explants displaying adventitious shoot formation: 96.7%
Dandelion leaf explants [1]; [26]
  number of regenerated shoots per explant: (16.9) shoots per explant
  percentage of leaf explants displaying adventitious shoot formation: 99.9%
Dandelion leaf explants [1]; [27]
  number of regenerated shoots per explant: (8.1) shoots per explant
  percentage of leaf explants displaying adventitious shoot formation: 99.9%
Dandelion leaf explants [1]; [28]
  number of regenerated shoots per explant: (5.8) shoots per explant
  percentage of leaf explants displaying adventitious shoot formation: 99.9%
Dandelion leaf explants [1]; [29]
  number of regenerated shoots per explant: (22.7) shoots per explant
  percentage of leaf explants displaying adventitious shoot formation: 99.9%
Dandelion leaf explants [1]; [30]
  number of regenerated shoots per explant: (23.4) shoots per explant
  percentage of leaf explants displaying adventitious shoot formation: 99.9%
Dandelion leaf explants [1]; [31]
  number of regenerated shoots per explant: (16.8) shoots per explant
  percentage of leaf explants displaying adventitious shoot formation: 99.9%
Dandelion leaf explants [1]; [32]
  number of regenerated shoots per explant: (6.7) shoots per explant
  percentage of leaf explants displaying adventitious shoot formation: 99.9%
Dandelion leaf explants [1]; [33]
  number of regenerated shoots per explant: (9.8) shoots per explant
  percentage of leaf explants displaying adventitious shoot formation: 99.9%
Dandelion leaf explants [1]; [34]
  number of regenerated shoots per explant: (21.9) shoots per explant
  percentage of leaf explants displaying adventitious shoot formation: 95.0%
Dandelion leaf explants [1]; [35]
  number of regenerated shoots per explant: (23.6) shoots per explant
  percentage of leaf explants displaying adventitious shoot formation: 99.9%
Dandelion leaf explants [1]; [36]
  number of regenerated shoots per explant: (20.3) shoots per explant
  percentage of leaf explants displaying adventitious shoot formation: 99.9%
Dandelion leaf explants [1]; [37]
  number of regenerated shoots per explant: (13.4) shoots per explant
  percentage of leaf explants displaying adventitious shoot formation: 95.5%
Dandelion leaf explants [1]; [38]
  number of regenerated shoots per explant: (7.3) shoots per explant
  percentage of leaf explants displaying adventitious shoot formation: 96.2%
Dandelion leaf explants [1]; [39]
  number of regenerated shoots per explant: (14.7) shoots per explant
  percentage of leaf explants displaying adventitious shoot formation: 99.9%
Dandelion leaf explants [1]; [40]
  number of regenerated shoots per explant: (19.3) shoots per explant
  percentage of leaf explants displaying adventitious shoot formation: 99.9%
Dandelion leaf explants [1]; [41]
  number of regenerated shoots per explant: (25.5) shoots per explant
  percentage of leaf explants displaying adventitious shoot formation: 99.9%
Dandelion leaf explants [1]; [42]
  number of regenerated shoots per explant: (8.9) shoots per explant
  percentage of leaf explants displaying adventitious shoot formation: 99.9%
Dandelion leaf explants [1]; [43]
  number of regenerated shoots per explant: (8.1) shoots per explant
  percentage of leaf explants displaying adventitious shoot formation: 99.9%

## C=C1CC[C@]2(C)CC[C@]3(C)[C@H](CC[C@@H]4[C@@]5(C)CC[C@H](O)C(C)(C)[C@@H]5CC[C@]43C)[C@H]2[C@@H]1C [taraxasterol]
[3]
  anti-tumor-promoting activity: potent anti-tumor-promoting activity

## CC1(C)CC[C@]2(C)CC=C3[C@]4(C)CC[C@H]5C(C)(C)[C@@H](O)CC[C@]5(C)[C@H]4CC[C@@]3(C)[C@@H]2C1 [taraxerol]
[3]
  anti-tumor-promoting activity: potent anti-tumor-promoting activity

## O=C(O)Cc1cccc2ccccc12 [α-Naphthalene acetic acid, α-naphthalene acetic acid]
Dandelion leaf explants [1]; [44]
  number of regenerated shoots per explant: (0.0) shoots per explant
  percentage of leaf explants displaying adventitious shoot formation: 0.0%
Dandelion leaf explants [1]; [45]
  number of regenerated shoots per explant: (0.0) shoots per explant
  percentage of leaf explants displaying adventitious shoot formation: 0.0%
Dandelion leaf explants [1]; [46]
  number of regenerated shoots per explant: (2.0) shoots per explant
  percentage of leaf explants displaying adventitious shoot formation: 20.0%
Dandelion leaf explants [1]; [47]
  number of regenerated shoots per explant: (0.0) shoots per explant
  percentage of leaf explants displaying adventitious shoot formation: 0.0%
Dandelion leaf explants [1]; [48]
  number of regenerated shoots per explant: (0.0) shoots per explant
  percentage of leaf explants displaying adventitious shoot formation: 0.0%
Dandelion leaf explants [1]; [49]
  number of regenerated shoots per explant: (0.0) shoots per explant
  percentage of leaf explants displaying adventitious shoot formation: 5.0%
Dandelion leaf explants [1]; [50]
  number of regenerated shoots per explant: (0.0) shoots per explant
  percentage of leaf explants displaying adventitious shoot formation: 0.0%
Dandelion leaf explants [1]; [51]
  number of regenerated shoots per explant: (0.0) shoots per explant
  percentage of leaf explants displaying adventitious shoot formation: 0.0%
